The subject of one series is juvenile minipigs. As to the kind of experiment: 13-week repeat-dose toxicity study, rectal administration. It is filed as in vivo. Particulars: 13 weeks, 5 doses per day, 550 to 13,750 mg/kg. As for the experimental part:
The aim of this study was to test the toxicity of repeated administrations of sodium phenylbutyrate (NaPB) by the intended human route in juvenile minipigs (13-week study, total dose divided into 5 doses per day). Minipig is a model of interest for studies of local tolerance due to similarities between properties of the skin of pigs of the one of humans.
A 13-week repeat-dose toxicity study was conducted in juvenile minipigs using the rectal administration route of sodium phenylbutyrate (NaPB). One group was treated […] at the pharmacological dose of NaPB. One group received oral NaPB (total dose divided into 5 doses per day) for comparison.
The study included safety pharmacology evaluation, toxicokinetic (TK) determination, as well as a four-week recovery period.
Earliest dosing was started at 7 days of age. Oral gavage (5 times daily at 3-4 hour intervals) and rectal administration (5 times daily at 3-4 hour intervals) were performed during 13 weeks. A recovery period of 28 days was performed.
The recovery animals were housed for additional 28 days after dosing. The piglets were weighed twice weekly throughout the study. Growth measurements were performed twice weekly. Ophthalmology, electrocardiography were done the last day of treatment. […] The parameters measured met standard guidelines. […]

The conditions of series [1]: after per os ingestion; cited from earlier work.
The subject of series [2] is patients with SMA type II. Particulars: oral, 9 weeks, cited from earlier work.
The test system of a further series is patients with SMA. Particulars: oral, 500 mg/kg/day, intermittent regimen, 13 weeks, 107 patients; cited from earlier work.
For the next series, the system named is SMA. To be noted: in vivo; cited from earlier work.

As a reminder, the half-life is how long it takes for the measured level to halve. As for `O=C([O-])CCCc1ccccc1.[Na+]` [4-phenylbutyrate, sodium 4-phenylbutyrate], in the series on juvenile minipigs, the toxicity entry is on record as “No toxicity was observed”. Moreover, the half-life in series [1] is 46.2 min. Further, the “scores on a motor scale” value in series [2] (500 mg/kg/day in five doses, 7 days on and 7 days off, 10 patients) is reported as “significant increase”. Moreover, the side effects entry in series [2] (500 mg/kg/day) is on record as “no major side effect”. Besides, in the series on patients with SMA, the efficacy result is “not shown to be effective” and the tolerability entry was “well tolerated”.

Regarding `CCCC(CCC)C(=O)O` [Valproic acid, valproic acid], the efficacy entry in the series on SMA is reported as “do not seem to have given significant results”.

As for `NC(=O)NO` [hydroxyurea], the efficacy result in the series on SMA is listed as “do not seem to have given significant results”.

(Values after patent publication US20140187638A1, “PHENYLBUTYRATE IN RECTAL FORM FOR THE TREATMENT OF A MOTOR NEURON DISEASE OR A METABOLIC DISEASE” (GMP-ORPHAN, priority 2011, published 2014).)
